The values that follow come from patent US6878722B2, “Substituted cycloalkyl P1′ hepatitis C virus inhibitors” (Bristol-Myers Squibb Company, priority 2002, dated 2005).

The target in test [1] is T1, HCV NS3/4A protease complex (BMS strain, genotype 1a) (Hepatitis C virus genotype 1a, UniProt P27958, C1454S).
T1 construct: DNA encoding the recombinant HCV NS3/4A protease complex (amino acids 1027 to 1711) for these strains; inferred from the pET21b vector and Ni-NTA purification; made in house; host or cells: Escherichia coli BL21 (DE3), pET21b
Briefly: Recombinant HCV NS3/4A protease complex FRET peptide assay, BMS strain. Type of test: biochemical. The following applies: NS3/4A BMS Strain. The procedure, abridged: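 Recombinant NS3/4A complex (aa 1027–1711) with C-terminal three-lysine tail, C1711G and C1454S, expressed in E. coli BL21(DE3) and purified by Ni-NTA then Superdex-S200. Inhibition of the complex from each strain measured in vitro by FRET peptide cleavage.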

Test [2] concerns HCV replicon in Huh7 cells. Put plainly: HCV replicon cell-based assay (FRET). The note with it: HCV replicon, read-out: EC50 range. In outline: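 Huh7 cells stably carrying a genotype 1b HCV replicon (IRES-neo-EMCV-IRES-NS3-NS5B) were treated with compound for 4 days at 37 °C in 0.5% DMSO final. Lysates containing 10 μM FRET peptide RET S1 were read kinetically at 340/490 nm to give NS3 protease activity, from which EC50 was derived.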

pEC50, pIC50: −log10 of the molar value. Like-named read-outs stand apart in the source and are kept apart here.

T1 sequence (P27958 1658-1714, looked up, stated change not applied): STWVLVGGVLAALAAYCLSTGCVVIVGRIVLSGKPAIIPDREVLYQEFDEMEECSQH
T1 sequence (P27958 1027-1657, looked up, stated change not applied): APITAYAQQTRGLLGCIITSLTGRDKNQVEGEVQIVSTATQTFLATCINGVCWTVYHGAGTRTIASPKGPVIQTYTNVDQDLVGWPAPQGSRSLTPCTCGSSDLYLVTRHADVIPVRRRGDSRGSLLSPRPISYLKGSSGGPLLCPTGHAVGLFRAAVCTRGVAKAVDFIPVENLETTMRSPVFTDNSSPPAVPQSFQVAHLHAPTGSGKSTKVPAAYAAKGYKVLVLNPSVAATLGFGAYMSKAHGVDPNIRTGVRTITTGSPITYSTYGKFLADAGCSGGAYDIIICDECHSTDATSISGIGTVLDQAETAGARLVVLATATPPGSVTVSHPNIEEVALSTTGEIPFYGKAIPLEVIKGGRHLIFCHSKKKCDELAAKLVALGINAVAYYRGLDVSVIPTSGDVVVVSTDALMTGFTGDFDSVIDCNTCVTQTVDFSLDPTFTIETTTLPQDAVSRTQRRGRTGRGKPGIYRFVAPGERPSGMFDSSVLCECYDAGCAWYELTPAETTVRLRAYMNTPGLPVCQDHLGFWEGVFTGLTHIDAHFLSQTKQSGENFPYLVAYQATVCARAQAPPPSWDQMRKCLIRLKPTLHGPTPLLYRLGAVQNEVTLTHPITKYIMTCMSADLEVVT

What is called pIC50 is −log10 of the IC50, conventionally taken in molar units. A word on the pEC50: it is −log10 of the EC50, conventionally taken in molar units. Consider `COc1ccc2c(O[C@@H]3C[C@@H](C(=O)N[C@]4(C(=O)NS(=O)(=O)C5(Cc6ccccc6)CC5)CC4C4CC4)N(C(=O)[C@@H](NC(=O)OC(C)(C)C)C(C)(C)C)C3)cc(-c3ccccc3)nc2c1` (stereo partly drawn) [Compound 204], for which the pIC50 in test [1] (IC50 range) was 6.30 to 7.30. Moreover, the negative-log EC50 (pEC50) in test [2] (Hepatitis C virus, Huh-7) is 6.30 to 7.30.

In the case of `C=C[C@@H]1C[C@]1(NC(=O)[C@@H]1C[C@@H](Oc2cc(-c3ccccc3)nc3cc(OC)ccc23)CN1C(=O)[C@@H](NC(=O)OC(C)(C)C)C(C)(C)C)C(=O)NS(=O)(=O)C1(Cc2ccccn2)CC1` [Compound 48, (1-{4-(7-Methoxy-2-phenyl-quinolin-4-yloxy)-2-[1-(1-pyridin-2-ylmethyl-cyclopropanesulfonylaminocarbonyl)-2-vinyl-cyclopropylcarbamoyl]-pyrrolidine-1-carbonyl}-2,2-dimethyl-propyl)-carbamic acid tert-butyl ester], the pIC50 in test [1] (IC50 range) is over 7.30. Besides, the negative-log EC50 (pEC50) in test [2] (Hepatitis C virus, Huh-7) is over 7.30.

Take `COc1ccc2c(O[C@@H]3C[C@@H](C(=O)NC4(C(=O)NS(=O)(=O)C5(CC6CC6)CC5)CC45CC5)N(C(=O)[C@@H](NC(=O)OC(C)(C)C)C(C)(C)C)C3)cc(-c3ccccc3)nc2c1` (mixture of isomers) [Compound 202, {1-[2-[1-(1-Cyclopropylmethyl-cyclopropanesulfonylaminocarbonyl)-spiro[2.2]pent-1-ylcarbamoyl]-4-(7-methoxy-2-phenyl-quinolin-4-yloxy)-pyrrolidine-1-carbonyl]-2,2-dimethyl-propyl}-carbamic acid tert-butyl ester]: the negative logarithm of the IC50 (pIC50) in test [1] (IC50 range) was 6.30 to 7.30. For the same molecule, the pEC50 in test [2] (Hepatitis C virus, Huh-7) was 5.30 to 6.30.

Regarding `C=CCCCCCCCC1(S(=O)(=O)NC(=O)C2(NC(=O)C3CC(Oc4cc(-c5ccccc5)nc5cc(OC)ccc45)CN3C(=O)C(NC(=O)OC(C)(C)C)C(C)(C)C)CC2C=C)CC1` (stereo not drawn) [Compound 34, (1-{4-(7-Methoxy-2-phenyl-quinolin-4-yloxy)-2-[1-(1-non-8-enyl-cyclopropanesulfonylaminocarbonyl)-2-vinyl-cyclopropylcarbamoyl]-1-pyrrolidine-1-carbonyl}-2,2-dimethyl-propyl)-carbamic acid tert-butyl ester], the negative-log IC50 (pIC50) in test [1] (read-out: IC50 range) was over 7.30. For the same molecule, in test [2], the pEC50 was over 7.30.

Take `CCCC1(S(=O)(=O)NC(=O)C2(NC(=O)[C@@H]3C[C@@H](Oc4cc(-c5ccccc5)nc5cc(OC)ccc45)CN3C(=O)[C@@H](NC(=O)OC(C)(C)C)C(C)(C)C)CC23CC3)CC1` (mixture of isomers) [Compound 200, (1-{4-(7-Methoxy-2-phenyl-quinolin-4-yloxy)-2-[1-(1-propyl-cyclopropane-sulfonylaminocarbonyl)-spiro[2.2]pent-1-ylcarbamoyl]-pyrrolidine-1-carbonyl}-2,2-dimethyl-propyl)-carbamic acid tert-butyl ester]: the pIC50 in test [1] (IC50 range) was 6.30 to 7.30. The pEC50 in test [2] (Hepatitis C virus, Huh-7) is 5.30 to 6.30.

On to `C=C[C@@H]1C[C@]1(NC(=O)[C@@H]1C[C@@H](Oc2cc(-c3ccccc3)nc3cc(OC)ccc23)CN1C(=O)[C@@H](NC(=O)Oc1ccccc1OC)C(C)(C)C)C(=O)NS(=O)(=O)C1(Cc2ccccc2)CC1` [Compound 107], for which, in test [1] (IC50 range), the pIC50 was 6.30 to 7.30. Besides, the pEC50 in test [2] (Hepatitis C virus, Huh-7) is 5.30 to 6.30.

As to `COc1ccc2c(O[C@@H]3C[C@@H](C(=O)NC4(C(=O)NS(=O)(=O)C5(C(=O)Nc6ccccc6)CC5)CC4)N(C(=O)[C@@H](NC(=O)OC(C)(C)C)C(C)(C)C)C3)cc(-c3ccccc3)nc2c1` [Compound 72, (1-{4-(7-Methoxy-2-phenyl-quinolin-4-yloxy)-2-[1-(1-phenylcarbamoyl-cyclopropanesulfonylaminocarbonyl)-cyclopropylcarbamoyl]-pyrrolidine-1-carbonyl}-2,2-dimethyl-propyl)-carbamic acid tert-butyl ester], in test [1] (IC50 range), the pIC50 was 5.30 to 6.30. In addition, the pEC50 in test [2] (Hepatitis C virus, Huh-7) is 4.30 to 5.30.

In the case of `C=C[C@@H]1C[C@]1(NC(=O)[C@@H]1C[C@@H](Oc2cc(-c3ccccc3)nc3cc(OC)ccc23)CN1C(=O)[C@@H](NC(=O)OCCF)C(C)(C)C)C(=O)NS(=O)(=O)C1(Cc2ccccc2)CC1` [Compound 106], the negative-log IC50 (pIC50) in test [1] (IC50 range) is over 7.30. For the same molecule, in test [2] (Hepatitis C virus, Huh-7), the pEC50 was 6.30 to 7.30.

For the molecule `C=C[C@@H]1C[C@]1(NC(=O)[C@@H]1C[C@@H](Oc2cc(-c3ccccc3)nc3cc(OC)ccc23)CN1C(=O)[C@@H](NC(=O)OCCOC)C(C)(C)C)C(=O)NS(=O)(=O)C1(Cc2ccccc2)CC1` [Compound 104], in test [1] (IC50 range), the pIC50 is 6.30 to 7.30. Further, in test [2] (Hepatitis C virus, Huh-7), the pEC50 was 5.30 to 6.30.

For `C=C[C@@H]1C[C@]1(NC(=O)[C@@H]1C[C@@H](Oc2cc(-c3ccccc3)nc3cc(OC)ccc23)CN1C(=O)[C@@H](NC(=O)OC(C)(C)C)C(C)(C)C)C(=O)NS(=O)(=O)C1(Cc2ccc(F)cc2)CC1` [Compound 40, {1-[2-{1-[1-(4-Fluoro-benzyl)-cyclopropanesulfonylaminocarbonyl]-2-vinyl-cyclopropylcarbamoyl}-4-(7-methoxy-2-phenyl-quinolin-4-yloxy)-pyrrolidine-1-carbonyl]-2,2-dimethyl-propyl}-carbamic acid tert-butyl ester], the negative-log IC50 (pIC50) in test [1] (IC50 range) is over 7.30. For the same molecule, the pEC50 in test [2] (Hepatitis C virus, Huh-7) was 6.30 to 7.30.

With `C=C[C@@H]1C[C@]1(NC(=O)C1C[C@@H](Oc2cc(-c3ccccc3)nc3cc(OC)ccc23)CN1C(=O)[C@@H](NC(=O)[C@@H](OC)c1ccccc1)C(C)(C)C)C(=O)NS(=O)(=O)C1(CC2CC2)CC1` (stereo partly drawn) [Compound 119], the pIC50 in test [1] (IC50 range) was over 7.30. Also, the pEC50 in test [2] (Hepatitis C virus, Huh-7) is 6.30 to 7.30.

On to `C=C[C@@H]1C[C@]1(NC(=O)[C@@H]1C[C@@H](Oc2ccnc3cc(Cl)ccc23)CN1C(=O)[C@@H](NC(=O)OC1CCCC1)C(C)(C)C)C(=O)NS(=O)(=O)C1(CC2CC2)CC1` [Compound 66, (1-{4-(7-Chloro-quinolin-4-yloxy)-2-[1-(1-cyclopropylmethyl-cyclopropanesulfonylaminocarbonyl)-2-vinyl-cyclopropylcarbamoyl]-pyrrolidine-1-carbonyl}-2,2-dimethyl-propyl)-carbamic acid cyclopentyl ester], for which the pIC50 in test [1] (IC50 range) was over 7.30. In addition, in test [2] (Hepatitis C virus, Huh-7), the pEC50 was 6.30 to 7.30.

For `C=C[C@@H]1C[C@]1(NC(=O)[C@@H]1C[C@@H](Oc2cc(-c3ccccc3)nc3cc(OC)ccc23)CN1C(=O)[C@@H](NC(=O)OC(C)(C)C)C(C)(C)C)C(=O)NS(=O)(=O)C1(Cc2ccncc2)CC1` [Compound 47], the negative logarithm of the IC50 (pIC50) in test [1] (IC50 range) is over 7.30. Besides, the pEC50 in test [2] (Hepatitis C virus, Huh-7) was over 7.30.

Consider `C=CCC1(S(=O)(=O)NC(=O)C2(NC(=O)[C@@H]3C[C@@H](Oc4cc(-c5ccccc5)nc5cc(OC)ccc45)CN3C(=O)[C@@H](NC(=O)OC(C)(C)C)C(C)(C)C)CC2)CC1` [Compound 75, {1-[2-[1-(1-Allyl-cyclopropanesulfonylaminocarbonyl)-cyclopropylcarbamoyl]-4-(7-methoxy-2-phenyl-quinolin-4-yloxy)-pyrrolidine-1-carbonyl]-2,2-dimethyl-propyl}-carbamic acid tert-butyl ester], for which the negative logarithm of the IC50 (pIC50) in test [1] (IC50 range) was over 7.30. Besides, the pEC50 in test [2] (Hepatitis C virus, Huh-7) was 5.30 to 6.30.

In the case of `C=C[C@@H]1C[C@]1(NC(=O)[C@@H]1C[C@@H](Oc2cc(-c3ccccc3)nc3cc(OC)ccc23)CN1C(=O)[C@@H](NC(=O)OC1CCCC1)C(C)(C)C)C(=O)NS(=O)(=O)C1(Cc2ccccc2)CC1` [Compound 55, {1-[2-[1-(1-Benzyl-cycloprolanesulfonylaminocarbonyl)-2-vinyl-cycloproylcarbamoyl]-4-(7-methoxy-2-phenyl-quinolin-4-yloxy)-pyrrolidine-1-carbonyl]-2,2-dimethyl-propyl}-carbamic acid cyclopentyl ester], in test [1] (IC50 range), the pIC50 is over 7.30. Also, in test [2] (Hepatitis C virus, Huh-7), the negative-log EC50 (pEC50) is 6.30 to 7.30.

As to `CCCC1(S(=O)(=O)NC(=O)[C@@]2(NC(=O)[C@@H]3C[C@@H](Oc4cc(-c5ccccc5)nc5cc(OC)ccc45)CN3C(=O)[C@@H](NC(=O)OC(C)(C)C)C(C)(C)C)CC2C2CC2)CC1` (stereo partly drawn) [Compound 203], the pIC50 in test [1] (IC50 range) was over 7.30. Further, in test [2] (Hepatitis C virus, Huh-7), the pEC50 was 6.30 to 7.30.

On to `C=CC1C[C@]1(NC(=O)[C@@H]1C[C@@H](Oc2cc(-c3ccccc3)nc3cc(OC)ccc23)CN1C(=O)[C@@H](NC(=O)OC(C)(C)C)C(C)(C)C)C(=O)NS(=O)(=O)C1(C2=CCCCC2)CC1` (stereo in doubt) [Compound 3, {1-[2-[1-(1-Cyclohex-1-enyl-cyclopropanesulfonylaminocarbonyl)-2-vinylcyclopropylcarbamoyl]-4-(7-methoxy-2-phenyl-quinolin-4-yloxy)pyrrolidine-1-carbonyl]-2,2-dimethylpropyl}carbamic acid tert-butyl ester], for which, in test [1] (IC50 range), the pIC50 was 6.30 to 7.30. Further, the pEC50 in test [2] (Hepatitis C virus, Huh-7) is 6.30 to 7.30.

`C=C[C@@H]1C[C@]1(NC(=O)[C@@H]1C[C@@H](Oc2cc(-c3ccccc3)nc3cc(OC)ccc23)CN1C(=O)[C@@H](NC(=O)OC(C)(C)C)C(C)(C)C)C(=O)NS(=O)(=O)C1(Cc2ccccc2F)CC1` [Compound 41, {1-[2-{1-[1-(2-Fluoro-benzyl)-cyclopropanesulfonylaminocarbonyl]-2-vinyl-cyclopropylcarbamoyl}-4-(7-methoxy-2-phenyl-quinolin-4-yloxy)-pyrrolidine-1-carbonyl]-2,2-dimethyl-propyl}-carbamic acid tert-butyl ester]: in test [1] (IC50 range), the negative logarithm of the IC50 (pIC50) is over 7.30. For the same molecule, the pEC50 in test [2] (Hepatitis C virus, Huh-7) was 6.30 to 7.30.
